Reference: ChEMBL document CHEMBL3507680, “University of Dundee, Gates Library screen for HepG2 cell viability”

Experiment: Human HepG2 cell viability assay in 384 well format
Format: toxicity, cell-based
Parameters: dose 125 nL, time 70.5 hour; concentration not given beside the values
Settings: HepG2 cells, read-out: Inhibition

SMILES	cytotoxicity at 70.5 h [%]
Clc1ccccc1CNC(Cn1cncn1)c1ccccc1 (centres undefined)	14.7
CCOC(C)C(=O)NS(=O)(=O)c1cccc2cc(C)cnc12 (centres undefined)	1.55
CC(C)(C)n1ncc2c(=O)[nH]c(N3CC(O)C3)nc21	0.684
Cc1cn2c(CN(C)C(=O)c3ncoc3C)c(C)nc2s1	-0.848
Cc1cn2c(CN(C)C(=O)c3cccnc3O)c(C)nc2s1	-4.29
COC(C)C(=O)NS(=O)(=O)c1cccc2cc(C)cnc12 (centres undefined)	-2.88
Cc1cc(C(=O)N(C)C(C)CC(C)C)on1 (centres undefined)	-1.57
Cc1occc1C(=O)N1CCOC2(CCCC2)C1	-3.65
FC(F)Oc1ccc(CN2CCOC3(CCOCC3)C2)cc1Cl	1.46
Fc1cc(CN2CCOC3(CCOCC3)C2)ccc1Cl	-1.5
CCCOC1CCCN(C(=O)c2ccnc(N3CCN(C)CC3)c2)C1 (centres undefined)	23
CC(C)(C)NC(=O)COc1ccc(Oc2ccccn2)cc1	-6.32
COc1ccc(Oc2ccc(CNC(=O)C3CCS(=O)(=O)C3)cn2)cc1 (centres undefined)	-6.05
COc1ccc(OC)c(CCC(=O)Nc2cc(C)n[nH]2)c1	-13.4
O=C(c1cnc(NCC2CCCO2)c(Cl)c1)N1CCCCC1 (centres undefined)	30.2
Cc1cc(C)c(CNC(=O)N2CCNC(=O)C2)c(=O)[nH]1	-4.49
O=C(CN1CCc2cncnc2C1)N1CCc2sccc2C1	-11
CN(C)C1Cc2ccccc2N(S(=O)(=O)c2cccc(C#N)c2)C1 (centres undefined)	-4.2
CN(C)C1Cc2ccccc2N(S(=O)(=O)c2ccc(C#N)cc2)C1 (centres undefined)	-7.27
COc1ccc(C)cc1CC(=O)Nc1cc(C)n[nH]1	-8.99
COc1cc(OC)cc(N2CCC(NCc3cccs3)C2=O)c1 (centres undefined)	-0.0615
CN(CCCNC(=O)NCc1ccncc1)CC(F)(F)F	-8.47
CCc1nsc(N2CCOC3(CCCC3)C2)n1	-3.55
CC(C)c1cnc(CN2CCCC(c3ccn[nH]3)C2)o1 (centres undefined)	-7.68

SMILES	cytotoxicity at 70.5 h [%]
CCc1ocnc1C(=O)N1CCOCC1CC(=O)c1ccccc1 (centres undefined)	-7.1
Cc1cnn(CCNCc2cc(C)no2)c1	2.88
N#Cc1cccc(CN2CCCC2c2ccc[nH]2)c1 (centres undefined)	15.2
CCc1ccc(C2CCCN2C(=O)Cc2ccc(NC(C)=O)cc2)o1 (centres undefined)	10.6
CCN(CC)C(=O)CCCNC(=O)c1csc(NC2CC2)n1	-9.34
O=C1CSCN1CC(=O)N1CCCC1c1nc2ccccc2s1 (centres undefined)	2.26
CC(C)C(C)N(C)Cc1nnc(-c2ccco2)o1 (centres undefined)	17.4
CCOC(=O)NCCC(=O)NCc1ccnc(Oc2ccc(F)cc2)c1	-1.77
CC(Cc1ccccc1F)NC(=O)CCc1nc(-c2nnc[nH]2)no1 (centres undefined)	-4.06
CNC(=O)c1cccc(NC(=O)c2ccnc(N(C)C)c2)c1C	-0.673
Cc1cc(NC(=O)CNc2ccc(Br)cc2F)on1	2.93
Cn1c(C2CCCN2C(=O)CN2CCCC2=O)nc2ccccc21 (centres undefined)	-3.63
Cc1nc2cc(=O)[nH]n2c(C)c1CC(=O)Nc1cnn(C(C)(C)C)c1	-3.02
Cc1noc(C)c1C(=O)NCc1cc[nH]n1	11.4
CCC(CC)C(=O)NCC1(NC(C)c2ccccc2)CCOCC1 (centres undefined)	16.6
CC1CCCN(Cc2ccc(CNC(=O)NCc3ccncc3)cc2)C1 (centres undefined)	-5.32
Cc1ncc2c(n1)CN(Cc1cn3ccsc3n1)CC2	-0.474
COc1ccc(C(CC(=O)O)NC(=O)c2cc(C)on2)cc1 (centres undefined)	-1.84
CCC(NC(=O)NCC(=O)Nc1ccc(F)cc1)c1ccncc1 (centres undefined)	2.31
CCNC(=O)Cc1ccc(NC(=O)NC(CC)c2ccncc2)cc1 (centres undefined)	-2.39
CCOC(=O)c1nnc2ccccc2c1N1CCN(C(C)C)CC1	-4.21
CCOCC(=O)NCC1(NC(C)c2ccccc2)CCOCC1 (centres undefined)	-8.52
COc1cccc(S(=O)(=O)CCN2CCCC2c2ccc[nH]2)c1 (centres undefined)	-16.8
CC(=O)N1CCN(CCNS(=O)(=O)c2ccc(F)c(F)c2)CC1	2.27

SMILES	cytotoxicity at 70.5 h [%]
O=C(NCCCNC(=O)c1cccc(O)c1)Nc1ccc(Cl)cc1	-0.328
CCNC(=O)NC(=O)CNC1(c2noc(C)n2)CCCC1	16.6
NC(=O)C(CNC(=O)Cc1ccsc1)Cc1ccc(F)cc1 (centres undefined)	-3.39
CC(c1nc(C2CC2)no1)N1CCN(CC(=O)N2CCOCC2)CC1 (centres undefined)	0.558
CCn1cnnc1C1CCN(C(=O)c2c(C)oc(C)c2C)CC1	0.3
CCC(C)NC(=O)NCCC(=O)N1CCN(c2ccccn2)CC1 (centres undefined)	-0.377
CCn1cnnc1C1CCN(C(=O)c2ccc3ccccc3n2)CC1	-3.84
CCn1cnnc1C1CCN(C(=O)c2cccc(-n3cccc3)c2)CC1	-2.68
CC(C)c1nc(C(=O)N2CCOCC2CC(=O)c2ccco2)cs1 (centres undefined)	-2.9
Cc1nc(CN2CCN(C(=O)c3scnc3C)CC2)cs1	-3.33
COCCCN(CCOC)C(=O)Nc1ccccc1-n1cccn1	2.41
Cc1cnc(CNC2CCc3nc(C(C)C)nn3C2)cn1 (centres undefined)	-2.01
Cc1cccc(NC(=O)CN(C)C(=O)c2scnc2C)n1	0.715
CC(C)c1ccc(C(=O)N2CCOCC2CC(=O)c2ccco2)cn1 (centres undefined)	-5.67
O=C(C1CCCC1)N1CCC2(CC1)OCCO2	-1.7
CCN(CC)C(=O)CN(C)C(=O)c1ccc(-c2ccsc2)nc1C	33.4
O=C(CN1CCCCC1Cn1cncn1)Nc1ccncc1 (centres undefined)	3.49
CN(Cc1cnn(C)c1)C(=O)NC1CCCC1	-7.1
CCOc1ncccc1NC(=O)c1cc(C)sc1C	-11
CC(C)CC(=O)N1CCCC1c1ccsc1 (centres undefined)	-10.6
O=C(CCC(=O)N1CCCC1c1ccsc1)N1CCOCC1 (centres undefined)	-5.51
O=C(O)c1nnn(-c2cccc(C(F)(F)F)c2)c1C1CC1	-3.12
Cc1nc(CCNC(=O)Nc2cc(C(F)(F)F)c[nH]c2=O)cs1	-6.32
CC(C)NC(=O)c1nnn(-c2cccc(F)c2)c1C1CC1	-6.18

SMILES	cytotoxicity at 70.5 h [%]
CC(C)CN1CCC(NC(=O)c2ccc(F)cc2Cl)CC1	-2.96
NC(=O)COc1ccc(CNCc2ccc(Cl)c(F)c2)cc1	-0.573
Cc1nccc(CNC(=O)Nc2cc(C(F)(F)F)c[nH]c2=O)n1	-5.34
Cc1cccc(NCC(=O)Nc2cc(F)ccc2F)c1C(N)=O	-8.06
Cc1cc(C)n(CC2CN(CC(=O)Nc3cccnc3)CCO2)n1 (centres undefined)	-4.57
O=C(CN1CCOC(Cn2cccn2)C1)Nc1cccnc1 (centres undefined)	31.9
CCN(CC1CCOC1)C(=O)c1ccc(-c2ccsc2)nc1C (centres undefined)	-7.65
CCN(CC(=O)NC(C)C)C(=O)c1ccc(-c2ccsc2)nc1C	-3.6
O=C(CN1CCCC1Cn1cncn1)Nc1ccnn1C1CCCC1 (centres undefined)	-4.96
Fc1cccc(C2CCCN2Cc2nnnn2C2CC2)c1 (centres undefined)	-8.46
Cc1cc(C)n(Cc2cccc(C(=O)NCCSCC(C)(C)O)c2)n1	-3.16
Cc1nc(C)n(CC2CN(CC(=O)Nc3ccncc3)CCO2)n1 (centres undefined)	-5.56
CCc1nc(CN(C)C2CCN(Cc3nc(C4CC4)no3)C2)no1 (centres undefined)	31.8
CCc1cnc(CN(C)C2CCN(CCCS(=O)(=O)NC)C2)o1 (centres undefined)	2.84
Cc1nn(C)c(N2CCOCC2)c1CNC(c1ccccc1)C1CC1 (centres undefined)	11.3
CC(CN1CCOCC1)NC(=O)c1cc(Cl)c2c(c1)OCCO2 (centres undefined)	0.172
Cc1ccc(NC(=O)N(CCO)Cc2ccsc2)cc1	-0.584
COc1ccc(C2CCCCCN2S(N)(=O)=O)cc1 (centres undefined)	23.5
CCS(=O)(=O)N1CCC(Oc2ccc(C#N)cc2)CC1	24.1
COc1ccc(NC(=O)N(CCO)Cc2ccsc2)c(OC)c1	0.461
CC(C)(C(=O)NCC(=O)NCc1ccccc1)c1ccccc1F	3.35
CCCS(=O)(=O)N1CCC(Oc2ccc(C#N)cc2)CC1	4.2
CC(C)c1nnc2n1CC(CNCc1nc3ccccc3o1)CC2 (centres undefined)	2.4
CC(C)(C)c1n[nH]c(C2CN(C(=O)CCCn3cccn3)CCO2)n1 (centres undefined)	0.387

SMILES	cytotoxicity at 70.5 h [%]
Cc1noc(C)c1CN1CCC(N(C)Cc2noc(C(C)C)n2)C1 (centres undefined)	5.99
Cc1ncccc1CNCC1CCc2nnc(C(C)C)n2C1 (centres undefined)	-7.03
O=C(NCCNc1ccccn1)NCC1CCS(=O)(=O)C1 (centres undefined)	4.42
Cc1nnc(CN(Cc2cccc(Br)c2)C2CC2)o1	-8.25
O=S1(=O)CCC(c2nc(-c3cccc(Br)c3)no2)C1 (centres undefined)	-8.75
Cc1cnn(C2CN(Cc3nnc(-c4ccccc4Cl)o3)C2)c1	5.37
Cc1cc(CS(=O)(=O)N(C)C(C)c2ccc(Cl)cc2)on1 (centres undefined)	-11.1
COC(=O)NCCC(=O)NC(c1ccc(Cl)cc1)C(F)(F)F (centres undefined)	-8.05
Cc1cc(CNC(=O)CCN2CCN(c3ccccn3)CC2)c(C)o1	9.41
COCCN(c1ccncc1)S(=O)(=O)c1cc(C)cc(F)c1	-10.7
N#CCc1ccc(OCC(=O)NS(=O)(=O)c2ccc(Br)s2)cc1	4.36
O=C(NCCNc1cnccn1)NCC1CCS(=O)(=O)C1 (centres undefined)	-7.83
Cc1ncsc1CNC(=O)CCN1CCN(c2ccccn2)CC1	-8.25
CCNC(=O)CN(Cc1ccoc1)C1CCCCC1	-9.92
COCCN(C)S(=O)(=O)c1cc(C)cc(F)c1	-5.49
CCN(CCNCc1cccc(C#N)c1)C1CC1	10.9
Cc1csc(NC(=O)C2(C)CCCO2)n1 (centres undefined)	-7.86
CC(=O)c1ccc(OCC(=O)NS(=O)(=O)c2ccc(Cl)s2)cc1	-10.1
CNC(=O)NC(=O)CNC(CC(F)(F)F)c1ccc(F)cc1 (centres undefined)	4.15
CN(C)C(=O)CNC(CC(F)(F)F)c1ccc(Cl)cc1 (centres undefined)	0.0833
NS(=O)(=O)CCN(CCc1cccc(F)c1)C1CCCC1	-0.787
Cc1cccc(N2CCN(C(=O)c3c(C)nn(C)c3C)CC2)c1C	-0.882
NC(=O)COc1ccc(CNCc2cc(F)ccc2F)cc1	32.7
